Columns and labels:
Rat SERT = molecular target: T1, Rat SERT (Rattus norvegicus, UniProt P31652); assay: Rat brain SERT binding ([3H]-citalopram displacement); settings: rat brain membranes without cerebellum, 0.6 nM [3H]-citalopram, 60 min at 25° C.; read-out: Rat SERT Ki
T1 construct: A rat brain without cerebellum (Zivic Laboratories, Inc.—Pittsburgh, Pa.) was homogenized; tissue Zivic Laboratories, Inc; host or cells: rat brain without cerebellum, membranes
Experimental: The supernatant was removed and re-centrifuged at 15,000 rpm for 30 min. […] Membranes were incubated with 0.6 nM [^3H]-Citalopram plus/minus test compounds for 60 min at 25° C. and harvested by rapid filtration over GF/C glass fiber filters (pretreated with 0.3% polyethylenimine) followed by four washes with ice-cold buffer.

human H3 receptor = molecular target: T2, human H3 receptor (Homo sapiens, UniProt Q9Y5N1); assay: H3 receptor binding (N-[3H]-α-methylhistamine displacement); settings: membranes of SK-N-MC cells expressing cloned human H3 receptor, 0.8 nM N-[3H]-α-methylhistamine, 60 min at 25° C.
T2 construct: expressed in transfected cells
Experimental: Briefly, cell pellets from SK-N-MC cells expressing the human H3 receptor were homogenized in 50 mM Tris-HCl/5 mM EDTA and re-centrifuged at 30,000 g for 30 min. Pellets were re-homogenized in 50 mM Tris/6 mM EDTA (pH 7.4). Membranes were incubated with 0.8 nM N-[^3H]-α-methylhistamine plus/minus test compounds for 60 min at 25° C. and harvested by rapid filtration over GF/C glass fiber filters (pretreated with 0.3% polyethylenimine) followed by four washes with ice-cold buffer. Nonspecific binding was defined in the presence of 10 μM histamine.

T2 sequence (Q9Y5N1 whole entry): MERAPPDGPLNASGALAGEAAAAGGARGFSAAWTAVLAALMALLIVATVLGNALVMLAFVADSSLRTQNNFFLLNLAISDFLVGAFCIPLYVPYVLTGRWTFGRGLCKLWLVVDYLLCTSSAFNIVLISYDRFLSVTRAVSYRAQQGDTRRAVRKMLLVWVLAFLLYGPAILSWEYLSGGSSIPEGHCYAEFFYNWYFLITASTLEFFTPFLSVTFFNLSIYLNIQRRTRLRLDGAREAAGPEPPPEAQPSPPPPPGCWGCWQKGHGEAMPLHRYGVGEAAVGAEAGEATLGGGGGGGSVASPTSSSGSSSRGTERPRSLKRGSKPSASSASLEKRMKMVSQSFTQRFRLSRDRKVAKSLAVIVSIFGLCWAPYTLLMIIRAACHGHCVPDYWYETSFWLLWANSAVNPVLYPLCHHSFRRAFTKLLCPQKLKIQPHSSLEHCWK
T1 sequence (P31652 whole entry): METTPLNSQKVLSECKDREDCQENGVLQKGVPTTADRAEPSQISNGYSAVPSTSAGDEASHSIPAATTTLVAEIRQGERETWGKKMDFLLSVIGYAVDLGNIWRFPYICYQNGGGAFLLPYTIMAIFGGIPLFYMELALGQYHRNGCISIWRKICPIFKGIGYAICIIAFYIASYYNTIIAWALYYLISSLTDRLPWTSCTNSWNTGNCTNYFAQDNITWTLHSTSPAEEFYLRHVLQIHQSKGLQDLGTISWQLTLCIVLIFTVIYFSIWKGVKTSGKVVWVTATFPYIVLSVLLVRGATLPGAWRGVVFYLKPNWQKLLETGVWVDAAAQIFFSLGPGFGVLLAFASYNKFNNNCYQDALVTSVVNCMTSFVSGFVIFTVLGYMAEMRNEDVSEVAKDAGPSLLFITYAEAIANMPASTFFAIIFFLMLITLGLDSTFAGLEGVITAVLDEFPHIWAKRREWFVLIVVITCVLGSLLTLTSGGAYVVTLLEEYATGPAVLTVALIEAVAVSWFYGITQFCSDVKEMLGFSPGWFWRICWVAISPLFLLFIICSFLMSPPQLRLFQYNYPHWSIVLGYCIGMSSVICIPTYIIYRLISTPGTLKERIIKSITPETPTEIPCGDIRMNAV

Row | SMILES | Ki (Rat SERT) | Ki (human H3 receptor)
1 | COc1ccc(C2CN(C)Cc3cc(OC[C@@H]4CN(C5CC5)CCO4)ccc32)cc1 (mixture of isomers) [Example 260, 7-(4-Cyclopropyl-morpholin-2S-ylmethoxy)-4-(4-methoxy-phenyl)-2-methyl-1,2,3,4-tetrahydro-isoquinoline] | 29 nM | 3 nM
2 | COc1ccc(C2CN(C)Cc3cc(OCC4CN(C)CCO4)ccc32)cc1 (mixture of isomers) [Example 251, 4-(4-Methoxy-phenyl)-2-methyl-7-(4-methyl-morpholin-2-ylmethoxy)-1,2,3,4-tetrahydro-isoquinoline] | 12 nM | 67 nM
3 | CN1Cc2cc(OCCCN3CCOCC3)ccc2C(c2ccc(SC(F)(F)F)cc2)C1 (centres unmarked) [Example 218, 2-Methyl-7-(3-morpholin-4-yl-propoxy)-4-(4-trifluoromethylsulfanyl-phenyl)-1,2,3,4-tetrahydro-isoquinoline] | 36 nM | 38 nM
4 | COc1ccc(C2CN(Cc3ccccc3)Cc3cc(OCCCN4CCCCC4)ccc32)cc1 (centres unmarked) [Example 65, 2-Benzyl-4-(4-methoxy-phenyl)-7-(3-piperidin-1-yl-propoxy)-1,2,3,4-tetrahydro-isoquinoline] | 3000 nM | 7 nM
5 | COc1ccc(C2CN(C)Cc3cc(OC[C@H]4CN(C5CC5)CCO4)ccc32)cc1 (mixture of isomers) [Example 261, 7-(4-Cyclopropyl-morpholin-2R-ylmethoxy)-4-(4-methoxy-phenyl)-2-methyl-1,2,3,4-tetrahydro-isoquinoline] | 32 nM | 62 nM
6 | COc1ccc(C2CN(C)Cc3cc(OCCCN4CCN(C(=O)OC(C)(C)C)CC4)ccc32)cc1 (centres unmarked) [Example 211, 4-{3-[4-(4-Methoxy-phenyl)-2-methyl-1,2,3,4-tetrahydro-isoquinolin-7-yloxy]-propyl}-piperazine-1-carboxylic acid tert-butyl ester] | 27 nM | 823 nM
7 | COc1ccc(C2CN(C)Cc3cc(OC4CCN(CC#N)CC4)ccc32)cc1 (centres unmarked) [Example 242] | 6 nM | 124 nM
8 | COc1ccc(C2CN(C)Cc3cc(OCCCNC4CCOCC4)ccc32)cc1 (centres unmarked) [Example 223, {3-[4-(4-Methoxy-phenyl)-2-methyl-1,2,3,4-tetrahydro-isoquinolin-7-yloxy]-propyl}-(tetrahydro-pyran-4-yl)-amine] | 5 nM | 59 nM
9 | COc1cccc(C2CN(C)Cc3cc(OC4CCN(C)CC4)ccc32)c1 (centres unmarked) [Example 97, 4-(3-Methoxy-phenyl)-2-methyl-7-(1-methyl-piperidin-4-yloxy)-1,2,3,4-tetrahydro-isoquinoline] | 45 nM | 6 nM
10 | CCNCCCOc1ccc2c(c1)CN(C)CC2c1ccc(OC)cc1 (centres unmarked) [Example 232, Ethyl-{3-[4-(4-methoxy-phenyl)-2-methyl-1,2,3,4-tetrahydro-isoquinolin-7-yloxy]-propyl}-amine] | 1 nM | 20 nM
11 | COc1ccc(C2CN(C)Cc3cc(OCC(F)CN4CCC(F)CC4)ccc32)cc1 (centres unmarked) [Example 43, 7-[2-Fluoro-3-(4-fluoro-piperidin-1-yl)-propoxy]-4-(4-methoxy-phenyl)-2-methyl-1,2,3,4-tetrahydro-isoquinoline] | 3 nM | 18 nM
12 | CCCN1CCC(COc2ccc3c(c2)CN(C)CC3c2cccc(OC)c2)CC1 (centres unmarked) [Example 93, 4-(3-Methoxy-phenyl)-2-methyl-7-(1-propyl-piperidin-4-ylmethoxy) 1,2,3,4-tetrahydro-isoquinoline] | 22 nM | 6 nM
13 | COc1ccc(C2CN(C)Cc3cc(OC[C@@H]4CNCCO4)ccc32)cc1 (stereo partly drawn) [Example 252, 4-(4-Methoxy-phenyl)-2-methyl-7-(morpholin-2S-ylmethoxy)-1,2,3,4-tetrahydro-isoquinoline] | 2 nM | 233 nM
14 | COc1ccc(C2CN(C)Cc3cc(OC4CCN(C(C)C)CC4)ccc32)c(F)c1 (centres unmarked) [Example 119, 4-(2-Fluoro-4-methoxy-phenyl)-7-(1-isopropyl-piperidin-4-yloxy)-2-methyl-1,2,3,4-tetrahydro-isoquinoline] | 9 nM | 1 nM
15 | COc1ccc(C2CN(C)Cc3cc(OCC4CCNCC4)ccc32)c(F)c1 (centres unmarked) [Example 82, 4-(2-Fluoro-4-methoxy-phenyl)-2-methyl-7-(piperidin-4-ylmethoxy)-1,2,3,4-tetrahydro-isoquinoline] | 6 nM | 64 nM
16 | COc1ccc(C2CN(C)Cc3cc(OCCCN4CCS(=O)(=O)CC4)ccc32)cc1 (centres unmarked) [Example 27, 7-[3-(1,1-Dioxo-1λ^6-thiomorpholin-4-yl)-propoxy]-4-(4-methoxy-phenyl)-2-methyl-1,2,3,4-tetrahydro-isoquinoline] | 3 nM | 104 nM

Row | SMILES | Ki (Rat SERT) | Ki (human H3 receptor)
17 | COc1ccc(C2CN(C)Cc3cc(OCCCNC(C4CC4)C4CC4)ccc32)cc1 (centres unmarked) [Example 131, Dicyclopropylmethyl-{3-[4-(4-methoxy-phenyl)-2-methyl-1,2,3,4-tetrahydro-isoquinolin-7-yloxy]-propyl}-amine] | 9 nM | 85 nM
18 | C=CCNCCCOc1ccc2c(c1)CN(C)CC2c1ccc(OC)cc1 (centres unmarked) [Example 227, Allyl-{3-[4-(4-methoxy-phenyl)-2-methyl-1,2,3,4-tetrahydro-isoquinolin-7-yloxy]-propyl}-amine] | 1 nM | 52 nM
19 | COc1ccc(C2CN(C)Cc3cc(OCCCNCCCO)ccc32)cc1 (centres unmarked) [Example 226, 3-{3-[4-(4-Methoxy-phenyl)-2-methyl-1,2,3,4-tetrahydro-isoquinolin-7-yloxy]-propylamino}-propan-1-ol] | 1 nM | 107 nM
20 | COc1ccc(C2CN(Cc3ccccc3)Cc3cc(OCCCN4CCC(F)CC4)ccc32)cc1 (centres unmarked) [Example 127, 2-Benzyl-7-[3-(4-fluoro-piperidin-1-yl)-propoxy]-4-(4-methoxy-phenyl)-1,2,3,4-tetrahydro-isoquinoline] | 5000 nM | 39 nM
21 | COc1ccc(C2CN(C)Cc3cc(OC4CCNCC4)ccc32)cc1F (centres unmarked) [Example 151, 4-(3-Fluoro-4-methoxy-phenyl)-2-methyl-7-(piperidin-4-yloxy)-1,2,3,4-tetrahydro-isoquinoline] | 3 nM | 119 nM
22 | CCCNCCCOc1ccc2c(c1)CN(C)CC2c1ccc(OC)cc1 (centres unmarked) [Example 231, {3-[4-(4-Methoxy-phenyl)-2-methyl-1,2,3,4-tetrahydro-isoquinolin-7-yloxy]-propyl}-propyl-amine] | 2 nM | 61 nM
23 | COc1cccc(C2CN(C)Cc3cc(OC4CCN(C5CCCC5)CC4)ccc32)c1 (centres unmarked) [Example 101, 7-(1-Cyclopentyl-piperidin-4-yloxy)-4-(3-methoxy-phenyl)-2-methyl-1,2,3,4-tetrahydro-isoquinoline] | 18 nM | 2 nM
24 | COc1ccc(C2CN(C)Cc3cc(OCCCN4CCN(CCO)CC4)ccc32)cc1 (centres unmarked) [Example 202, 2-(4-{3-[4-(4-Methoxy-phenyl)-2-methyl-1,2,3,4-tetrahydro-isoquinolin-7-yloxy]-propyl}-piperazin-1-yl)-ethanol] | 3 nM | 43 nM
25 | COc1ccc(C2CN(C)Cc3c2ccc(OCCCN2CCOCC2)c3C)cc1 (centres unmarked) [Example 269, 4-(4-Methoxy-phenyl)-2,8-dimethyl-7-(3-morpholin-4-yl-propoxy)-1,2,3,4-tetrahydro-isoquinoline] | 23 nM | 44 nM
26 | COc1ccc(C2CN(C)Cc3cc(OCCCN(C4CC4)C4CCN(C)CC4)ccc32)cc1 (centres unmarked) [Example 224, Cyclopropyl-{3-[4-(4-methoxy-phenyl)-2-methyl-1,2,3,4-tetrahydro-isoquinolin-7-yloxy]-propyl}-(1-methyl-piperidin-4-yl)-amine] | 32 nM | 61 nM
27 | COc1ccc(C2CN(C)Cc3cc(OCCCN4CCOC[C@@H]4CO)ccc32)cc1 (mixture of isomers) [Example 183A, (4-{3-[4-(4-Methoxy-phenyl)-2-methyl-1,2,3,4-tetrahydro-isoquinolin-7-yloxy)-propyl}-morpholin-3S-yl)-methanol] | 1 nM | 6 nM
28 | COc1ccc(C2CN(C)Cc3cc(OCCCN(C)c4nc5ccccc5s4)ccc32)cc1 (centres unmarked) [Example 19, Benzothiazol-2-yl-{3-[4-(4-methoxy-phenyl)-2-methyl-1,2,3,4-tetrahydro-isoquinolin-7-yloxy]-propyl}-methyl-amine] | 8 nM | 2000 nM
29 | COc1ccc(C2CN(C)Cc3cc(OCCCN4CCC(F)CC4)ccc32)cc1F (single isomer, unassigned) [Example 143, 4-(3-Fluoro-4-methoxy-phenyl)-7-[3-(4-fluoro-piperidin-1-yl)-propoxy]-2-methyl-1,2,3,4-tetrahydro-isoquinoline] | 18 nM | 4 nM
30 | COc1ccc(C2CN(C)Cc3cc(OCCCN4C=NCCC4)ccc32)cc1 (centres unmarked) [Example 18, 7-[3-(5,6-Dihydro-4H-pyrimidin-1-yl)-propoxy]-4-(4-methoxy-phenyl)-2-methyl-1,2,3,4-tetrahydro-isoquinoline] | 1 nM | 74 nM
31 | COc1ccc(C2CN(C)Cc3cc(OCCCNCC(C)C)ccc32)cc1 (centres unmarked) [Example 228, Isobutyl-{3-[4-(4-methoxy-phenyl)-2-methyl-1,2,3,4-tetrahydro-isoquinolin-7-yloxy]-propyl}-amine] | 1 nM | 38 nM
